In article PMC7785020, “A unique hormonal recognition feature of the human glucagon-like peptide-2 receptor” (Cell Research, 2020):
Changes are numbered by the printed parent chain.

How the values were obtained:
[1] = target: T1, GLP-2R Y252^ECL1A (Homo sapiens, UniProt O95838, Y252A); assay: radioligand competition binding, Y252^ECL1A; set-up: WT (1–553); expressed in transfected cells; settings: COS-7, Y252^ECL1A; [^125I]GLP-2(1–33, M10Y) 10–15 pM, 4 h, 4 °C; mean ± SEM, n ≥ 3 in duplicate
T1 sequence (O95838 1-553 Y252A): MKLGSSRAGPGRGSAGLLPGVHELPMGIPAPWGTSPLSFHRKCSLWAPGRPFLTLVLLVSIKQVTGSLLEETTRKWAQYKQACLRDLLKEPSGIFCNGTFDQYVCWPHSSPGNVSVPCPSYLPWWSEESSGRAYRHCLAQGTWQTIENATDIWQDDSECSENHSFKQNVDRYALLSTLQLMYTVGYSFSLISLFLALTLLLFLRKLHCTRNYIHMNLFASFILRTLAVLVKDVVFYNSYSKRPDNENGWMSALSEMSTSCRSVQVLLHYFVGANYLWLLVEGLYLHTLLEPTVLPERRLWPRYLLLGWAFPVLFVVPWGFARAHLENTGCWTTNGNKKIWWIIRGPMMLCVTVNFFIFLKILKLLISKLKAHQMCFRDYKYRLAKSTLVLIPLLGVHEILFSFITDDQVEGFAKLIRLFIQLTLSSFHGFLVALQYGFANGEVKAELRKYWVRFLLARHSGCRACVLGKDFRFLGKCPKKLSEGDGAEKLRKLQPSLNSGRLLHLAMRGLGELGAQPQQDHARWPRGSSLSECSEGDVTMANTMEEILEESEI
Method: (§1) A stepwise oxidation reaction was performed by addition of 6 aliquots of 5 µL ChloramineT (30 µL/mL) with a 1-min interval during constant stirring. The reaction was terminated by the addition of 400 µL phase A (0.1% trifluoracetic acid) before being fractionated into 1 mL volume by reverse-phase high-performance liquid chromatography (RP-HPLC, Waters 600 SimiPrep system) on a C18 column. The iodinated protein was […] by increasing concentrations of phase B (Acetonitrile + 0.1% TFA) and tested for competitive binding ability.
(§2) One day before transfection, the COS-7 cells were seeded in 75 cm^2 culture flasks (3 million cells/flask) in DMEM, containing 3.9 g/L NaHCO3 and supplemented with 10% FBS, 1% L-glutamine, 180 units/mL penicillin and 45 µg/mL streptomycin. After an overnight culture at 37 °C, 10% CO2 and 95% air humidity, the cells were transiently transfected with different GLP-2R constructs or pcDNA3.1 vector as previously described.[52] Following 24-h incubation, the cells were transferred to Costa® microtiter plates (150,000 cells/well, PerkinElmer) to achieve a 5%–10% specific binding. […] The cells were then washed twice in binding buffer (4 °C), lysed and counted for radioactivity using a Wallac Gamma Counter (PerkinElmer).

[2] = target: T2, GLP-2R W340^5.36A (Homo sapiens, UniProt O95838, W340A); assay: cAMP accumulation, W340^5.36A; type: cell-based; set-up: WT (1–553); expressed in transfected cells; HEK 293T (cAMP); settings: Table S3, W340A; HEK 293T, 30 min, RT; mean ± SEM, n ≥ 3 in duplicate; read-out: cAMP Emax (% WT)
T2 sequence (O95838 1-553 W340A): T1 sequence (O95838 1-553 Y252A) with A252Y, W340A
Method: HEK 293T cells were cultured in Dulbecco’s Modified Eagle’s Medium (DMEM) (Gibco, Waltham, USA) supplemented with 10% (v/v) fetal bovine serum (FBS) (Gibco) and 1% (v/v) sodium pyruvate (Gibco) at 37 °C, 5% CO2 in a humidified incubator. They were seeded onto 6-well cell culture plates and transiently transfected with different GLP-2R constructs using Lipofectamine 2000 transfection reagent (Invitrogen, Carlsbad, CA, USA). After 24 h, the transfected cells were seeded onto 384-well microtiter plates (3000 cells per well) in HBSS supplemented with 5 mM HEPES, 0.1% (w/v) bovine serum albumin (BSA) and 0.5 mM 3-isobutyl-1- methylxanthine, and stimulated with increasing concentrations of GLP-2 for 30 min at RT. Eu and Ulight were diluted by cAMP detection buffer and added to the plates separately to terminate the reaction. Plates were incubated at RT for 60 min before measuring the fluorescence intensity at 620 nm and […] by an EnVision multilabel plate reader (PerkinElmer, Boston, USA).

[3] = target: T2, GLP-2R W340^5.36A; assay: radioligand competition binding, W340^5.36A; set-up: WT (1–553); expressed in transfected cells; settings: COS-7, W340^5.36A; [^125I]GLP-2(1–33, M10Y) 10–15 pM, 4 h, 4 °C; mean ± SEM, n ≥ 3 in duplicate
Method: as §1, §2

SMILES | % Binding of WT [1] [%] | Emax [2] [%] | % Binding of WT [3] [%]
CC[C@H](C)[C@H](NC(=O)[C@H](Cc1ccccc1)NC(=O)[C@H](CC(=O)O)NC(=O)[C@H](CCCNC(=N)N)NC(=O)[C@H](C)NC(=O)[C@H](C)NC(=O)[C@H](CC(C)C)NC(=O)[C@H](CC(N)=O)NC(=O)[C@H](CC(=O)O)NC(=O)[C@H](CC(C)C)NC(=O)[C@@H](NC(=O)[C@@H](NC(=O)[C@H](CC(N)=O)NC(=O)[C@H](CCSC)NC(=O)[C@H](CCC(=O)O)NC(=O)[C@H](CC(=O)O)NC(=O)[C@H](CO)NC(=O)[C@H](Cc1ccccc1)NC(=O)[C@H](CO)NC(=O)CNC(=O)[C@H](CC(=O)O)NC(=O)[C@H](C)NC(=O)[C@@H](N)Cc1c[nH]cn1)[C@@H](C)O)[C@@H](C)CC)C(=O)N[C@@H](CC(N)=O)C(=O)N[C@@H](Cc1c[nH]c2ccccc12)C(=O)N[C@@H](CC(C)C)C(=O)N[C@H](C(=O)N[C@@H](CCC(N)=O)C(=O)N[C@H](C(=O)N[C@@H](CCCCN)C(=O)N[C@H](C(=O)N[C@H](C(=O)N[C@@H](CC(=O)O)C(=O)O)[C@@H](C)O)[C@@H](C)CC)[C@@H](C)O)[C@@H](C)CC [Human GLP-2 (1–33)] | 8.3 ± 1.8 | 107 ± 3.6 | 7.3 ± 0.6
CC[C@H](C)[C@H](NC(=O)[C@H](Cc1ccccc1)NC(=O)[C@H](CC(=O)O)NC(=O)[C@H](CCCNC(=N)N)NC(=O)[C@H](C)NC(=O)[C@H](C)NC(=O)[C@H](CC(C)C)NC(=O)[C@H](CC(N)=O)NC(=O)[C@H](CC(=O)O)NC(=O)[C@H](CC(C)C)NC(=O)[C@@H](NC(=O)[C@@H](NC(=O)[C@H](CC(N)=O)NC(=O)[C@H](CCSC)NC(=O)[C@H](CCC(=O)O)NC(=O)[C@H](CC(=O)O)NC(=O)[C@H](CO)NC(=O)[C@H](Cc1ccccc1)NC(=O)[C@H](CO)NC(=O)CNC(=O)[C@H](CC(=O)O)NC(=O)CNC(=O)[C@@H](N)Cc1c[nH]cn1)[C@@H](C)O)[C@@H](C)CC)C(=O)N[C@@H](CC(N)=O)C(=O)N[C@@H](Cc1c[nH]c2ccccc12)C(=O)N[C@@H](CC(C)C)C(=O)N[C@H](C(=O)N[C@@H](CCC(N)=O)C(=O)N[C@H](C(=O)N[C@@H](CCCCN)C(=O)N[C@H](C(=O)N[C@H](C(=O)N[C@@H](CC(=O)O)C(=O)O)[C@@H](C)O)[C@@H](C)CC)[C@@H](C)O)[C@@H](C)CC [Teduglutide] | 6.3 ± 1.7 |  | 8.6 ± 1.8
